Values of other authors in US20250205146A1, “GRAPHENE-BASED DRUG DELIVERY DEVICE FOR MUCOSAL AND TRANSMUCOSAL ADMINISTRATION” (SISSA - SCUOLA INTERNAZIONALE SUPERIORE DI STUDI AVANZATI, priority 2022, published 2025).

Details: cyclic voltammetry, depending on the electrochemical system used

Cn1c(=O)c2c(ncn2C)n(C)c1=O [caffeine]
irreversible oxidation peak potential: over 1.4 V
